Measurements taken from patent US20060147456A1, “Induction of apoptosis in toll-like receptor expressing tumor cells” (priority 2004, published 2006).

How the values were obtained:
[1] = tested on: eye tumors; experiment: Eye tumor development in TRP-Tag/IFNαβγR−/− mice; type: in vivo, mouse; conditions: 100 μg/dose intravenous on days 21, 23, 25, 27 and 29
Method: We analyzed the effect of IFN on Poly IC induced apoptosis in vivo. TRP-Tag mice express SV40 T antigen in the retinal pigmented epithelium and typically develop eye tumors with complete penetrance within weeks from birth.
In these experiments, fourteen to sixteen TRP-Tag/IFNαβγR−/− mice per experiment (these are TPR-Tag mice that had been crossed to mice simultaneously deficient in the receptor for type I interferons (IFNαβR) and the receptor for type II interferon (IFNγR)) were treated on days 21, 23, 25, 27 and 29 by intravenous injections of either Poly IC (100 μg/dose) or PBS. The kinetics of visible eye tumor development was monitored 2-3 times per week.

[2] = tested on: PARP; experiment: Western Blot for cleavage of PARP in Cama-1 cells; type: cell-based, human; conditions: Poly IC treatment
Method: (§1) Cama-1 cells were lysed in 1% Nonidet-P40-containing buffer. 20 μg total protein was loaded per lane on SDS-Polyacrylamide gels (Invitrogen). Western Blots (WB) were performed with standard techniques using the antibodies described above. Anti IRAK-4 monoclonal antibodies were generated in the laboratory according to the protocol described in Fossiez et al., “T cell interleukin-17 induces stromal cells to produce proinflammatory and hematopoietic cytokines”, J. Exp. Med., vol. 183(6), pp. 2593-2603 (1996).
We next addressed the role of caspases in apoptosis. Cama-1 cells were pre-incubated with 25 μM of the general caspase inhibitor z-VAD-fmk or DMSO for 1 hour before culture for 24 hours with or without 5 μg/ml Poly IC or 25 ng/ml TNF-α (used as a positive control). Apoptosis was measured by annexin V staining and expressed as a percentage of apoptotic cell in the culture.
In another experiment, lysates from cells obtained above were analyzed by Western Blot for cleavage of PARP, Caspase 3 and Caspase 8.

[3] = tested on: SW527; experiment: Cell recovery by crystal violet staining; type: cell-based, human; conditions: 50 μg/ml Poly IC, 72 h
Method: (§2) Cell recovery after treatment with TLR ligands was measured by crystal violet staining (Sigma-Aldrich). Cells were plated at 10^4 cells/well in 96 well plates. After 72 hours of culture either with or without TLR ligand, the cells were washed with PBS, fixed in 6% formaldehyde (Sigma-Aldrich) for 20 minutes, washed twice, and then stained with 0.1% crystal violet for 10 minutes. After washes and incubation in 1% SDS for 1 hour, the absorbance was read at 605 nm on a Vmax plate reader (Molecular Devices, Sunnyvale, Calif.). Annexin V staining was performed with an annexin-FITC apoptosis detection kit (BD Pharmingen, San Diego, Calif.) according to the manufacturer's instructions. Sub-diploid cells were detected by staining with 3 μg/mL propidium iodide (PI) (Molecular probes, Eugene, Oreg.), after overnight permeabilization in 70% ethanol. Fluorescence was analyzed by flow cytometry on a FACScalibur (Becton Dickinson, Mountain View, Calif.) equipped with a doublet-discrimination module and using Celiquest Pro software (Becton Dickinson).
(§3) Four human breast tumor cell lines, Cama-1, SW527, BT483 and MCF-7, were analyzed for cell death in response to Poly IC. Cells were cultured for 72 hours with 5 μg/ml PGN, 50 μg/ml Poly IC or 10 μg/ml LPS. Control cells were cultured with PBS. Cytotoxicity was assessed by crystal violet staining and expressed as a percent of control.

[4] = tested on: BT483; experiment: Cell recovery by crystal violet staining; type: cell-based, human; conditions: 50 μg/ml Poly IC, 72 h
Method: as §2, §3

[5] = tested on: Cama-1; experiment: Cell recovery by crystal violet staining; type: cell-based, human; conditions: 50 μg/ml Poly IC, 72 h
Method: as §2, §3

[6] = tested on: MCF-7; experiment: Cell recovery by crystal violet staining; type: cell-based, human; conditions: 50 μg/ml Poly IC, 72 h
Method: as §2, §3

[7] = tested on: phosphorylated Stat1 (tyrosine 701); experiment: Western Blot of Cama-1 cell lysate for phosphorylated Stat1; type: cell-based, human; conditions: 5 μg/ml Poly IC
Method: as §1
The involvement of type 1 interferon in TLR3 mediated apoptosis was evaluated. Cama-1 cells were incubated with 5 μg/ml Poly IC for either 0 hours, 1 hour, 6 hours, 18 hours or 24 hours. The presence of IFN-β, phosphorylated Stat1 (tyrosine 701) (P-Stat-1) and total Stat-1 in the cell lysate were analyzed by Western Blot.

[8] = tested on: SKBr3 cells; experiment: Apoptosis analysis of SKBr3 cells; type: cell-based; conditions: for percentage of SKBr3 cells induced to apoptosis by Poly IC: summary statement
Method: We tried to further investigate whether any synergy exists between TLR3 ligands and type I IFN. The primary breast carcinoma cells SKBr3 were plated in 6 well plates at 3×10^5 cells per well. After overnight adherence, siRNA transfections were performed for 5 hours in OptiMEM medium (Life technologies) containing 3μg/mL lipofectamine 2000 (Invivogen) and 100 nM siRNA. Cells were transfected with either MOCK (water), TLR3 siRNA or PKR siRNA. Cells were then washed and cultured for 72 hours in complete medium before 24 hour treatment with 50 μg/ml Poly IC and apoptosis analysis.
In another experiment, we tried to determine whether IFN and Poly IC acted synergistically to induce apoptosis. SKBr3 cells were untreated or pre-treated with either 10 U/ml or 100 U/ml of a low dose mixture of IFN-α or IFN-β. Poly IC was administered in the following doses: 0, 0.5, 5 and 50 μg/ml for 48 hours.

Substance: polyinosinic-polycytidylic acid [Poly IC]
- delay of appearance of eye tumors compared to PBS [1]: up to 21 days
- cleavage of PARP [2]: occurred
- cell recovery, percent of control [3]: 75%
- cell recovery, percent of control [4]: 67%
- cell recovery, percent of control [5]: 33%
- cell recovery, percent of control [6]: 100%
- time of maximum Stat1 phosphorylation [7]: 6 h
- Stat1 phosphorylation ([7]; 0 to 24 hours): observed
- percentage of apoptotic cells ([8]; SKBr3, 0.5 μg/ml Poly IC 48 h, no IFN pre-treatment): 15%
- percentage of apoptotic cells ([8]; SKBr3, 0.5 μg/ml Poly IC 48 h, pre-treated IFN-α/β 10 U/ml): 45%
- percentage of apoptotic cells ([8]; SKBr3, 0.5 μg/ml Poly IC 48 h, pre-treated IFN-α/β 100 U/ml): 55%
- percentage of apoptotic cells ([8]; SKBr3, 5 μg/ml Poly IC 48 h, no IFN pre-treatment): 20%
- percentage of apoptotic cells ([8]; SKBr3, 5 μg/ml Poly IC 48 h, pre-treated IFN-α/β 10 U/ml): 55%
- percentage of apoptotic cells ([8]; SKBr3, 5 μg/ml Poly IC 48 h, pre-treated IFN-α/β 100 U/ml): 60%
- percentage of apoptotic cells ([8]; SKBr3, 50 μg/ml Poly IC 48 h, no IFN pre-treatment): 20%
- percentage of apoptotic cells ([8]; SKBr3, 50 μg/ml Poly IC 48 h, pre-treated IFN-α/β 10 U/ml): 55%
- percentage of apoptotic cells ([8]; SKBr3, 50 μg/ml Poly IC 48 h, pre-treated IFN-α/β 100 U/ml): 60%
- Poly IC concentration at which cells become sensitive to apoptosis, IFN pre-treated versus non-pretreated cells ([8]; SKBr3, type I IFN pre-treatment): one hundred fold lower
- percentage of apoptotic cells ([8]; SKBr3 MOCK group, 24 h, 50 μg/ml Poly IC, untreated 10%): 22%
- percentage of apoptotic cells ([8]; SKBr3 PKR siRNA group, 24 h, 50 μg/ml Poly IC, untreated 12%): 22%
- percentage of apoptotic cells ([8]; SKBr3 TLR3 siRNA group, 24 h, 50 μg/ml Poly IC, untreated 8%): 13%
- percentage of SKBr3 cells induced to apoptosis by Poly IC ([8]; after type I IFN pre-treatment): 66%
- percentage of SKBr3 cells induced to apoptosis by Poly IC ([8]; without type I IFN pre-treatment): 22%
